The test system of one assay is male rats. Particulars: 25 U/mL, cited from earlier work; for hypoglycemic effect, administered intramuscularly: intramuscularly (FIG. 6 of Hashimoto et al.); for hypoglycemic effect, administered intravenously: intravenously (FIG. 5 of Hashimoto et al.).
In the next assay the test system is conscious dog model. As to the kind of experiment: Plasma glucose after subcutaneous injection in conscious dog model. The format is in vivo, beagles. The note with it: for Plasma glucose concentration: n = 1. The method, then:
Experiments were conducted in overnight-fasted, conscious, adult (1-2 years of age) male and female beagles weighing 8-15 kg. At least ten days prior to the study, animals were anesthetized with isoflurane, and a cut-down was made in the left or right inguinal region. Silastic catheters were inserted into the femoral artery and into the proximal caudal femoral vein and secured with 4-0 silk suture. The free ends of the catheters were passed subcutaneously to the back using a trocar needle. The catheters were then filled with a glycerol/heparin solution (3:1, v/v; final heparin concentration of 250 KIU/ml), and the free ends were knotted and placed in a subcutaneous pocket to allow complete closure of the skin. Keflex was administered both pre-operatively (20 mg/kg, IV and 20 mg/kg, I.M.) and post-operatively (250 mg, p.o. once daily for seven days) to prevent infections. Torbugesic (1.5 mg/kg, I.M.) was administered post-operatively to control pain. Blood was drawn just prior to the study day to determine the health of the animal. Only animals with hematocrits above 38% and leukocyte counts below 16,000/mm^3 were used. The afternoon before the experiment, the free ends of the catheters were exteriorized from the subcutaneous pocket through a small incision made under local anesthesia (2% lidocaine), and the dog was fitted with a tether system jacket and collar assembly. The morning of the experiment, the contents of the arterial catheter were aspirated (only the arterial line was used in these studies), the catheter was flushed with saline, and an extension line (protected by a stainless steel tether) was attached to the catheter. The dog was placed in a metabolic cage, and the catheter extension line and tether was attached to a swivel system to allow the dog to move freely about the cage. After a 15 minute rest period (45 minutes, controls), blood (2-3.5 ml) was drawn for determination of the plasma glucose concentration. A second baseline sample was drawn 15 minutes later (0 time). Test substance (phosphate buffered saline or […] of B28-N^ε -Palmitoyl Lys^B28 Pro^B29 -human insulin; this does is the molar equivalent of 1.75 U/kg of human insulin) was administered subcutaneously in the dorsal of the neck.
Arterial blood samples (2-3.5 ml) were then taken at least every 30 minutes for the next two (controls) to six (B28-N^ε -palmitoyl Lys^B28 Pro^B29 -human insulin) hours. Samples were collected in vacuum blood collection tubes containing disodium EDTA and immediately placed on ice. The samples were centrifuged, and the resulting plasma was transferred to polypropylene test tubes and stored on ice or refrigerated for the duration of the study.
At the conclusion of the experiment, the animal was anesthetized (isoflurane); the catheter was flushed with fresh saline and filled with the glycerol/heparin mixture; the free end of the catheter was knotted and placed subcutaneously as described earlier; and antibiotic was administered (300 mg Keflex, I.M.). Plasma glucose concentrations were determined the day of the study using a glucose oxidase method in a Beckman glucose analyzer. Values are listed as the mean ± the standard error of the mean (SEM).

On to “B1,B29-N^α N^ε -dipalmitoyl insulin [B1,B29-Nα, N^ε -dipalmitoyl insulin]”, for which, in the assay with male rats, the “hypoglycemic effect, administered intramuscularly” value is “negligible effect” and the “hypoglycemic effect, administered intravenously” value was “very low activity”.
As for “B28-N^ε -Palmitoyl Lys^B28 Pro^B29 -human insulin”, the Plasma glucose concentration was 114 mg/dL with conscious dog model (30 minutes after 10.5 subcutaneously); 107 mg/dL with conscious dog model (60 minutes after 10.5 subcutaneously); 102 mg/dL in the assay with conscious dog model (90 minutes after 10.5 subcutaneously); 99 mg/dL in the assay with conscious dog model (120 minutes after 10.5 subcutaneously); 101 mg/dL in the assay on conscious dog model (150 minutes after 10.5 subcutaneously); 100 mg/dL with conscious dog model (180 minutes after 10.5 subcutaneously). Moreover, the Plasma glucose concentration in the assay with conscious dog model (210 minutes after 10.5 subcutaneously) is recorded as 100 mg/dL; with conscious dog model (240 minutes after 10.5 subcutaneously), 98 mg/dL; in the assay with conscious dog model (270 minutes after 10.5 subcutaneously), 87 mg/dL; in the assay with conscious dog model (300 minutes after 10.5 subcutaneously), 82 mg/dL; in the assay on conscious dog model (330 minutes after 10.5 subcutaneously) it was 79 mg/dL; with conscious dog model (360 minutes after 10.5 subcutaneously) it was 75 mg/dL. The Plasma glucose concentration in the assay with conscious dog model (time 0 minutes (baseline), overnight-fasted dog) amounted to 116 mg/dL; with conscious dog model (time -15 minutes (baseline, before injection), overnight-fasted dog), 116 mg/dL. Also, in the assay on conscious dog model (six hours post-injection, vs baseline), the “decrease in the plasma glucose concentration” value was found to be 35%. For the same substance, in the assay on conscious dog model (subcutaneous, 10.5), the “activity in conscious dog model (in words)” value is reported as “insulin-like activity”.
Turning to B1-N^α -palmitoyl insulin, in the assay with male rats, the “hypoglycemic effect, administered intramuscularly” value is “only a short hypoglycemic effect” and the “hypoglycemic effect, administered intravenously” value is given as “very low activity”.

Source of the values: patent publication US5693609A, “Acylated insulin analogs” (Eli Lilly and Company, priority 1994, dated 1997).
